Data on two molecules can be found in patent publication US20250186461A1, “METHODS AND COMPOSITIONS FOR TREATING AND/OR PREVENTING HERNIAS” (Northwestern University, priority 2023, published 2025).

One test has as its target T1, aromatase enzyme (Homo sapiens, UniProt P11511).
T1 sequence (P11511 1-503): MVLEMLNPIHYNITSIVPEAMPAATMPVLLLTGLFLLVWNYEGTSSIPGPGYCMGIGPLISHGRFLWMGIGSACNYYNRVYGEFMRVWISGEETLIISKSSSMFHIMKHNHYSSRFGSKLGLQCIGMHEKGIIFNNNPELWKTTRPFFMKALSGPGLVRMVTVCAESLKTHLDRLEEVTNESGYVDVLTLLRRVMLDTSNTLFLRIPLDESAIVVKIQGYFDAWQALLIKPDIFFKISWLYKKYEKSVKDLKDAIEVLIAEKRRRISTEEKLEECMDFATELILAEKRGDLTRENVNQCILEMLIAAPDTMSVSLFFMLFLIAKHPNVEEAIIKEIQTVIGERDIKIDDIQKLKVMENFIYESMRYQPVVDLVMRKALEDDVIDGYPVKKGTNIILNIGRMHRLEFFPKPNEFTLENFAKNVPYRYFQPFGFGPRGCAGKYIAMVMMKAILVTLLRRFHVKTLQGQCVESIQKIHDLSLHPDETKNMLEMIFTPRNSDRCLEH
As to conditions: cited from earlier work.

Test [1] deals with LAM fibroblasts from Arom^hum mice. Description: Click-iT EdU proliferation assay. As to conditions: 1 μM antagonist; E2 (10 nM)+R5020 (100 nM). In kind it is cell-based, mouse.
Test [2] relates to Arom^hum mice. Description: Hernia prevention in Arom^hum mice (treatment before hernia formation). It counts as in vivo, mouse. Conditions: for hernia formation / hernia size: male Arom^hum mice, 12-week treatment started at 3-3.5 weeks of age (before hernia formation). From the text: Our study design is robust, utilizing Arom^hum mice with endpoints examined after treatment with placebo or anti-P4/PGR, and compared to those of WT littermates using 2 different tissue sites: UAM and LAM (normal or weakened/herniated). Inguinal hernia affects predominantly men vs. women (10:1 ratio). Inguinal hernias are unique to male mice and aged men. […] Here, we will focus on the effects of P4/PGR action on skeletal muscle integrity and hernia formation in males, and our work will be carried out in male mice or tissues primarily from men over 50 years of age. We will use mouse or human tissues or primary cells to closely recapitulate in vivo pathology.
The mouse scrotum is connected to the peritoneal cavity with a narrow funicular (or inguinal) canal, with walls composed of LAM tissue. Structurally normal LAM tissue is essential to maintain the tone of this canal and prevent herniation of the bowel.
Experiment 1a1: Does the addition of P4 to E2 treatment accelerate LAM fibrosis and hernia formation in WT mice? […] We hypothesize that this effect is primarily mediated by the E2 induction of PGR expression in LAM fibroblasts. […] If this were true, the addition of pharmacologic quantities of P4 (75 mg/pellet for 12-week release)^73 to E2 (0.3 mg/pellet for 12-week release)^23-25 in WT mice should accelerate this phenotype. […] See Statistical Methods above for sample size calculation. Hernia surface area will be measured using a digital caliper and calculated as previously described (length×width)^19. At the designated endpoints, LAM and UAM (control) from each mouse will be resected, with one-half of the tissue snap-frozen in liquid nitrogen, and the other half fixed in 4% phosphate-buffered paraformaldehyde for histological and IHC analyses (see below). All tissue and serum (for P4/E2 levels) samples will be collected between 10:00 AM and noon to avoid possible variability in daily hormone fluctuations. […] We will continue to complete the rest of the proposed study in this subaim. We will also assess whether and extent of muscle fibrosis and atrophy will be induced in P4+E2-induced large hernias and E2-induced small hernias. […] P4 antagonists show various levels of selectivity for PGR. […] The use of 3 distinct P4/PGR antagonists with different properties will establish the role of PGR in muscle fibrosis and hernia.
(§1) Hernias will be classified as small, medium, or large if the bulging area through muscle tissue is 125-175 mm^2, 175-225 mm^2, or >225 mm^2, respectively. […] We will assess whether muscle fibrosis, atrophy, and hernia are arrested or reversed. […] Hernia size will be measured. After completion of treatment, the mice will be dissected, and LAM, UAM (control), and serum will be collected. A total of 100 mg of tissue (LAM and UAM) will be obtained and frozen for measurement of tissue E2/P4.

The test system of test [3] is Arom^hum mice. Description: Halting progression of small/medium-sized hernias in Arom^hum mice. In kind it is in vivo, mouse. As to conditions: 12-week treatment started when small/medium-sized hernias were formed, n=10, vs placebo. The procedure:
The treatment started when small/medium-sized hernias were formed. ****p<0.0001.
as §1, with “E2/P4. Circulating and tissue E2/P4 levels will be measured using LC-MS^2. We will use immunoblotting and IHC to determine PGR expression in LAM and UAM tissues. PGR target gene expression (Greb1, Cyp7b1) will be measured in paraformaldehyde-fixed LAM tissues using RNAScope and IHC. […] We will continue to complete the rest of the proposed study in this subaim. We will also assess whether muscle fibrosis, atrophy, and large hernia are halted.” for “E2/P4.”

Each structure is given as a SMILES string. Entries after “also recorded” stand apart in the source; their conditions may differ.

For `CC#C[C@]1(O)CC[C@H]2[C@@H]3CCC4=CC(=O)CCC4=C3[C@@H](c3ccc(N(C)C)cc3)C[C@@]21C` [RU486, Mifepristone], the “inhibition of aromatase enzyme activity” value on aromatase enzyme is reported as “does not inhibit aromatase enzyme activity”. In addition, the “inhibition of E2+R5020-stimulated LAM fibroblast proliferation” value in test [1] is given as “inhibited; also recorded: blocked”. In addition, in the test with Arom^hum mice [2] (Arom^hum mice, placebo or RU486, n=6), the “LAM fibroblast proliferation in vivo (Ki67 IHC staining)” value was “blocked”. In addition, the “LAM tissue fibrosis, ECM deposition and myocyte atrophy (Masson's trichrome staining)” value in the test on Arom^hum mice [2] (Arom^hum mice, vs placebo) was “prevents LAM fibrosis, excessive ECM deposition or myocyte atrophy; also recorded: prevented LAM tissue fibrosis and atrophy in all treated Arom^hum mice”. For the same molecule, the “PGR-positive fibroblasts in LAM tissue (PGR IHC staining)” value in the test on Arom^hum mice [2] (Arom^hum mice, vs placebo, n=10) is listed as “much fewer fibroblasts with PGR IHC staining; also recorded: severely reduced numbers of PGR-positive fibroblasts”. Moreover, in the test with Arom^hum mice [2] (RU486-treated Arom^hum mice vs WT littermates), the scrotal area result was “slightly larger than that of WT littermates but was maintained within the upper limit of normal with no evidence of herniation”. The “hernia formation / hernia size” value in the test with Arom^hum mice [2] (vs placebo) is on record as “prevented hernia formation in Arom^hum mice; also recorded: strikingly reduced hernia size or entirely prevented hernia development in all Arom^hum mice”. In addition, in the test with Arom^hum mice [3], the “progression (growth) of small/medium-sized hernias, hernia area” value was “halted the progression of small/medium-sized hernias in Arom^hum mice; also recorded: halted the growth of small- and medium-size hernias in all treated Arom^hum mice”.
As for `CC(=O)O[C@]1(C(C)=O)CC[C@H]2[C@@H]3CCC4=CC(=O)CCC4=C3[C@@H](c3ccc(N(C)C)cc3)C[C@@]21C` [UPA, Ulipristal acetate], the “inhibition of aromatase enzyme activity” value on aromatase enzyme is given as “does not inhibit aromatase enzyme activity”. In test [1], the “inhibition of E2+R5020-stimulated LAM fibroblast proliferation” value is “inhibited; also recorded: blocked”. Besides, in the test on Arom^hum mice [2] (vs placebo), the “hernia formation / hernia size” value is “prevented hernia formation in Arom^hum mice; also recorded: also prevented hernia formation”. For the same molecule, the “progression (growth) of small/medium-sized hernias, hernia area” value with Arom^hum mice [3] was “halted the progression of small/medium-sized hernias in Arom^hum mice; also recorded: halted the growth of small- and medium-size hernias in all treated Arom^hum mice”.
